# Columns and labels:
# Assay type in all cases: cell-based, Human enterovirus D68
# [1] = tested on: EV-D68 strain USA-MO/18949; assay: CPE inhibition assay in RD cells; conditions: Enterovirus D, EVD68, 120 h; RD cells, 100 CCID50 virus, 33° C., five days, strain USA-MO/18949; read-out: Mean EC50 ± SD
# [2] = tested on: EV-D68 strain Fermon; assay: CPE inhibition assay repeated in HeLa H1 cells; conditions: Enterovirus D, EVD68
# [3] = tested on: EV-D68 strain USA-IL/18956; assay: CPE inhibition assay repeated in HeLa H1 cells; conditions: Enterovirus D, EVD68
# [4] = tested on: EV-D68 strain USA-MO/18949; assay: CPE inhibition assay repeated in HeLa H1 cells; conditions: Enterovirus D, EVD68
# [5] = tested on: four EV-D68 strains; assay: CPE inhibition assay in HeLa H1 cells, text summaries over the strains; conditions: Enterovirus D, EVD68, all four strains, read-out: EC50 values, range over all four strains in HeLa H1 cells
# [6] = tested on: EV-D68 1962 prototype strain (Fermon); assay: CPE inhibition assay in RD cells; conditions: Enterovirus D, EVD68, 120 h; RD cells, 100 CCID50 virus, 33° C., five days, strain Fermon; read-out: Mean EC50 ± SD
# [7] = tested on: EV-D68 strain USA-MO/18947; assay: CPE inhibition assay in RD cells; conditions: Enterovirus D, EVD68, 120 h; RD cells, 100 CCID50 virus, 33° C., five days, strain USA-MO/18947; read-out: Mean EC50 ± SD
# [8] = tested on: EV-D68 strain USA-MO/18947; assay: CPE inhibition assay repeated in HeLa H1 cells; conditions: Enterovirus D, EVD68
# [9] = tested on: four EV-D68 strains; assay: microbe, parasite or virus in culture; conditions: RD cells
# [10] = tested on: EV-D68 strain USA-IL/18956; assay: CPE inhibition assay in RD cells; conditions: Enterovirus D, EVD68, 120 h; RD cells, 100 CCID50 virus, 33° C., five days, strain USA-IL/18956; read-out: Mean EC50 ± SD
# [11] = tested on: EV-D68 Fermon strain; assay: CPE inhibition assay over a range of virus doses; conditions: Enterovirus D, EVD68; 100-fold virus dose range; strain not given; read-out: EC50 variation over a range of virus doses
# Protocol: Antiviral activity was assessed in a homogeneous cell-based assay that measured inhibition of viral cytopathic effect in human rhabdomyosarcoma cells (RD; ATCC CCL-136). The viruses included three representative EV-D68 strains from the 2014 outbreak (USA-MO/18947, USA-MO/18949, USA-IL/18956) (Brown et al. 2014. Seven Strains of Enterovirus D68 Detected in the United States during the 2014 Severe Respiratory Disease Outbreak. Genome Announc 2:e01201-01214), as well as the 1962 prototype strain (Fermon) (Schieble et al. 1967. A probable new human picornavirus associated with respiratory diseases. Am J Epidemiol 85:297-310). For the CPE inhibition assay, half-log10 dilutions of drug compound (10 μM to 0.001 μM) were combined with 100 CCID50 (50% cell culture infectious dose) of virus and added to monolayers of RD cells (5000 cells per well) in 384-well, white, flat-bottom microplates. Plates were incubated at 33° C. and 5% CO2 for five days, and cell viability was assessed using ATPLite® (Perkin Elmer, Waltham, Mass.) by adding 15 μL of cell lysis buffer and then 15 μL of substrate solution, following the manufacturer's recommendations.
# In both studies, the methods were somewhat different from our approach. […] For the other compounds tested, similar EC50 values were observed across this same dose range. […]
compound,measurement,setting,value
"Cc1cc(CCCOc2c(C)cc(-c3noc(C(F)(F)F)n3)cc2C)on1 [Pleconaril, pleconaril]",EC50,[1],6.09 ± 0.26 µM
same,EC50,[2],0.36 µM
same,EC50,[3],0.321 µM
same,EC50,[4],0.358 µM
same,EC50,[5],0.13 to 0.36 µM
same,EC50,[6],0.38 ± 0.01 µM
same,EC50,[7],4.44 ± 0.55 µM
same,EC50,[8],0.131 µM
same,concentrations at which activity against the 2014 strains was detected,[9]; 2014 strains,greater than 4 μM
same,EC50 against the 2014 strains relative to the Fermon strain,[9]; higher against 2014 strains,about 10 fold
same,EC50,[10],6.11 ± 1.05 µM
same,EC50,[11],0.3 to 0.5 µM
